Results on two molecules are retold here after patent publication US10166225B2, “Method for treating osteoporosis” (Exelixis, Inc., priority 2011, dated 2019).

Assay [1] concerns KS483 mouse osteoprogenitor cells. Kind of assay: Osteoblast differentiation assay (cellular ALP activity at day 8). To be noted: reference stimulator, 10 nM. Format: cell-based. As for the experimental part:
In the third part, KS483 mouse osteoprogenitor cells were cultured for 8 days, after which the formed mature osteoblasts were quantitated by measuring the amount of intracellular alkaline phosphatase (ALP) activity. […] The effects on osteoblasts were studied using KS483 mouse osteoprogenitor cells that can be induced to differentiate into bone-forming osteoblasts. […] In the osteoblast differentiation assay, the cells were cultured for 8 days, after which the formed mature osteoblasts were quantitated by measuring the amount of intracellular alkaline phosphatase (ALP) activity. […] A culture system was established that can be used as an in vitro model for studying the effects of anabolic and estrogen-like compounds on osteoblast differentiation and activity. In this culture system mouse KS483 cells first proliferate and then differentiate into osteoblasts capable of forming mineralized bone nodules in the presence of ascorbic acid and ß-glycerophosphate (Fagerlund et al. 2009). The test and reference compounds are added into the cell cultures concomitantly with the medium change, and their effects on the differentiation and activity of osteoblasts are determined. Cellular ALP, a marker of osteoblast differentiation, is determined from the cell lysates as described earlier (Lowry et al. 1954). Secreted PINP, a marker of organic bone matrix formation, is determined from the culture medium using a commercially available method (Rat/Mouse PINP EIA, IDS Ltd, Boldon, UK). Calcium deposition, an index of inorganic bone matrix formation, is measured using a commercially available calcium assay (Roche Diagnostics). Mouse KS483 cells were cultured in T-75 tissue culture flasks in aMEM supplemented with 10% charcoal-stripped fetal bovine serum until 80-90% confluence. The cells were incubated in a CO2 incubator in humidified atmosphere of 95% air and 5% carbon dioxide at 37° C. After reaching 80-90% confluence, subcultures were prepared. Cells were removed from the flasks with trypsin treatment and counted. For induction of the maturation of osteoblasts and bone formation, the immature osteoblastic cells were plated in type I collagen-coated 96-well plates. The cells were cultured for 8 days with a supplement of ascorbic acid ([…]), and half of the media was changed every 3-4 days. The test compound and control substance (E2) were added in the beginning of the culture period and when the medium was changed. The cultures were stopped at day 8 by removing the culture media from the wells, and cell lysates were prepared. Cellular ALP activity and total protein content (Protein Assay, Bio-Rad Laboratories Inc, CA, USA) were quantitated by using VICTOR2™ Multilabel Counter (PerkinElmer, Waltham, Mass., USA).

Assay [2] shares this test system. Kind of assay: Osteoblast activity assay (PINP at day 11, calcium deposition at day 13). Format: cell-based. To be noted: reference stimulator, 10 nM. The procedure:
The effects on osteoblasts were studied using KS483 mouse osteoprogenitor cells that can be induced to differentiate into bone-forming osteoblasts. […] In the osteoblast differentiation assay, the cells were cultured for 8 days, after which the formed mature osteoblasts were quantitated by measuring the amount of intracellular alkaline phosphatase (ALP) activity. […] A culture system was established that can be used as an in vitro model for studying the effects of anabolic and estrogen-like compounds on osteoblast differentiation and activity. In this culture system mouse KS483 cells first proliferate and then differentiate into osteoblasts capable of forming mineralized bone nodules in the presence of ascorbic acid and ß-glycerophosphate (Fagerlund et al. 2009). The test and reference compounds are added into the cell cultures concomitantly with the medium change, and their effects on the differentiation and activity of osteoblasts are determined. Cellular ALP, a marker of osteoblast differentiation, is determined from the cell lysates as described earlier (Lowry et al. 1954). Secreted PINP, a marker of organic bone matrix formation, is determined from the culture medium using a commercially available method (Rat/Mouse PINP EIA, IDS Ltd, Boldon, UK). Calcium deposition, an index of inorganic bone matrix formation, is measured using a commercially available calcium assay (Roche Diagnostics). Mouse KS483 cells were cultured in T-75 tissue culture flasks in aMEM supplemented with 10% charcoal-stripped fetal bovine serum until 80-90% confluence. The cells were incubated in a CO2 incubator in humidified atmosphere of 95% air and 5% carbon dioxide at 37° C. After reaching 80-90% confluence, subcultures were prepared. Cells were removed from the flasks with trypsin treatment and counted. For induction of the maturation of osteoblasts and bone formation, the immature osteoblastic cells were plated in type I collagen-coated 96-well plates. The cells were cultured for 13 days with a supplement of ascorbic acid (50 μg/ml) and ß-glycerophosphate (5 mM), and half of the media was changed every 3-4 days. The test compound and control substance (E2) were added in the beginning of the culture period and when the medium was changed. Secreted PINP was measured from the culture medium at day 11 as a marker of organic bone matrix formation. The cultures were stopped at day 13 by removing the culture media from the wells and adding hydrochloric acid. Calcium deposited into the formed bone matrix was quantitated by using VICTOR2™ Multilabel Counter (PerkinElmer, Waltham, Mass., USA).

Assay [3] deals with rat ovariectomy (OVX) model. Put plainly: Short-term effects on body weight, uterine weight and bone turnover markers in the rat ovariectomy (OVX) model. Format: in vivo, rat (Sprague-Dawley). On the set-up: key to Body weight, change during the first week / Body weight, change during the in-life phase / Relative uterine weight at day 14 / Serum PINP levels, change during the in-life phase / Serum OC levels, change during the in-life phase / Serum CTX levels, change during the in-life phase / Serum TRACP 5b activity, change during the in-life phase: An upwards arrow (↑) indicates a statistically significant increase; a downwards arrow (↓) a statistically significant decrease; One asterisk (*) indicates a statistical significance with a p-value<0.05; two asterisks (**) with a p-value<0.01; three asterisks (***) with a p-value<0.001; NS=Non-significant. From the text: The objective of this study was to investigate short-term effects of Compound 1 on biochemical serum markers of bone metabolism in a prevention study in a rat ovariectomy (OVX) model for postmenopausal osteoporosis. 17β-estradiol (E2) was used as a reference compound. The following five experimental groups were included in the study:
Each group contained eight female rats (Sprague-Dawley) that were three months of age at the beginning of in-life phase of the study. Before the start of the in-life phase, animals were weighed, their blood samples were harvested, and animals were randomized to study groups by stratification according to body weight and serum levels of procollagen type I N-terminal propeptide (PINP). At the beginning of the in-life phase, animals were weighed and operated. Treatment was started one day after the operations and continued once a day for two weeks. Sterile water was used as vehicle in groups 1 and 2. Body weight was determined after one week of treatment and treatment doses were adjusted accordingly. After two weeks of treatment, animals were weighed, their blood samples were harvested, animals were terminated, and their relative uterine weight was determined. For analyzing short-term effects of treatments, levels of four bone metabolism biomarkers were determined in serum samples harvested before the start and at the end of the in-life phase. These biomarkers included PINP as a marker of bone formation, N-terminal mid-fragment of osteocalcin (OC) as a general marker of bone turnover, C terminal cross-linked telopeptides of type I collagen (CTX) as a marker of bone resorption, and tartrate-resistant acid phosphatase isoform 5b (TRACP 5b) as a marker of osteoclast number. Serum levels at day −7 were used as baseline levels and serum levels at day 14 as levels affected by operations and treatments.
Each group contained eight female rats (Sprague-Dawley) that were three months of age at the beginning of in-life phase of the study. Animals were randomized to study groups by stratification according to their body weight and serum levels of procollagen type I N-terminal propeptide (PINP) measured one week before the start of the in-life phase (at day −7). At the beginning of the in-life phase (at day 0), animals were weighed, animals in groups 2-5 were ovariectomized, and animals in group 1 SHAM-operated. Treatment was started one day after the operations and continued once a day for two weeks (up to day 13). Sterile water was used as vehicle in groups 1 and 2. Body weight was determined at the beginning of the in-life phase (at day 0), one week after the start of the inlife phase (at day 7), and at the end of the in-life phase (at day 14). Treatment doses were adjusted according to the latest body weight obtained. After two weeks of treatment (at day 14), animals were weighed, their blood samples were harvested, animals were terminated, and their relative uterine weight was determined. For analyzing short-term effects of treatments, levels of four bone metabolism biomarkers were measured in serum samples harvested before the start of the in-life phase (at day −7) and at the end of the in-life phase (at day 14). These biochemical serum markers included PINP, N-terminal mid-fragment of osteocalcin (OC), C-terminal cross-linked telopeptides of type I collagen (CTX), and tartrate-resistant acid phosphatase isoform 5b (TRACP 5b). Serum levels obtained at day −7 were used as baseline levels and serum levels obtained at day 14 as levels affected by surgical operations and treatments.
Biochemical markers of bone metabolism are useful tools for monitoring osteoporosis therapy and for prediction of fracture risk and long-term changes in bone mineral density (Cremers et al. 2008). […]

The subject of assay [4] is human bone marrow-derived CD34+ osteoclast precursor cells. Put plainly: Osteoclast differentiation assay (secreted TRACP 5b at day 7). Format: cell-based. To be noted: reference inhibitor, 5 nM. The procedure:
The study was performed in four parts. In the first part, human bone marrow-derived CD34+ osteoclast precursor cells were cultured on bovine bone slices for 7 days, after which the formed osteoclasts were quantitated by measuring tartrate-resistant acid phosphatase 5b activity (TRACP 5b) in the culture medium.
The objective of this study was to investigate the effects of Compound 1 selected by the Sponsor on differentiation and activity of human osteoclasts and mouse osteoblasts in vitro. The effects on osteoclasts were studied using a model where bone marrow-derived human osteoclast precursor cells are cultured on bovine bone slices for 7 days in conditions favouring osteoclast differentiation, and allowed to differentiate into bone-resorbing osteoclasts. After completion of osteoclast differentiation at day 7, the culture medium was removed and new culture medium favouring osteoclast activity was added into the wells. The mature osteoclasts were then cultured for an additional 3 days, allowing them to resorb bone. In the osteoclast differentiation assay, the test compounds and a reference inhibitor osteoprotegerin (OPG) were added into cultures at day 0. In the osteoclast activity assay, the test compounds and a reference inhibitor E64 were added into cultures at day 7. Seven concentrations in 8 replicates were tested in both assays. Tartrate-resistant acid phosphatase 5b activity (TRACP 5b) was measured from the culture medium collected at day 7 as an index of the number of osteoclasts formed in each well during the differentiation period. C-terminal cross-linked telopeptides of type I collagen (CTX) was measured from the culture medium collected at day 10 to quantitate bone resorption during days 7-10.
A human osteoclast culture system was developed for use in this study where CD34+ osteoclast precursor cells derived from human bone marrow (Poietics® Human Osteoclast Precursors, Lonza, Walkersville, USA) are cultured on bovine bone slices in the presence of appropriate growth factors, including M-CSF and RANK-ligand (Rissanen et al. 2009). The cells are first allowed to differentiate into mature bone-resorbing osteoclasts, and the formed osteoclasts are then allowed to resorb bone. The test and reference compounds are added into the cell cultures at the beginning of the differentiation and/or the resorption period, and their effects on the differentiation and/or resorbing activity of osteoclasts are determined.
Secreted TRACP 5b is determined from the culture medium after the differentiation period using a commercially available method (BoneTRAPÒ, IDS Ltd, Boldon, UK). Secreted TRACP 5b describes accurately the number of osteoclasts formed in each well during the differentiation period. CTX is determined from the culture medium after the resorption period using a commercially available method (CrossLapsÒ for cultures, IDS Ltd, Boldon, UK). CTX describes accurately the amount of bone collagen degradation products released into the culture medium in each well during the resorption period.
In this study, human bone marrow-derived CD34+ stem cells (10000 cells/well) were suspended in culture medium and allowed to attach to bovine bone slices in 96-well tissue culture plates. The culture medium (containing 10% FBS, OCP BulletKit® Lonza, Walkersville, USA) was supplemented with appropriate amounts of important growth factors favoring osteoclast differentiation and activity, including M-CSF (33 ng/ml, OCP BulletKit® Lonza, Walkersville, USA) and RANK-ligand (66 ng/ml, OCP BulletKit® Lonza, Walkersville, USA) in 200 μl of medium. The cells were incubated in a CO2 incubator in humidified atmosphere of 95% air and 5% carbon dioxide at 37° C. for 7 days. The test compounds and reference compound OPG were added at day 0. Supernatants collected at day 7 were stored at −70° C. until analysis of TRACP 5b. TRACP 5b was measured from the culture medium (20 μl/sample) using VICTOR2™ Multilabel Counter (PerkinElmer, Waltham, Mass., USA). […]

Setting [5] is: OVX rats vs OVX vehicle, E2 4 μg/kg/d s.c.
The mark [6] stands for this setting: OVX rats, 17β-estradiol 4 μg/kg/d s.c., two weeks.

With `C[C@]12CC[C@@H]3c4ccc(O)cc4CC[C@H]3[C@@H]1CC[C@@H]2O` [Compound E2, 17β-estradiol, reference compound], the “effect on osteoblast differentiation” value in assay [1] is “stimulated significantly”. Further, in assay [2], the “effect on osteoblast activity” value was “stimulated significantly”. Also, in assay [3] (setting [5]), the “Body weight, change during the first week” value is “↓ **”; the “Body weight, change during the in-life phase” value is listed as “↓ **”; the “Relative uterine weight at day 14” value is recorded as “↑ **”; the “Serum CTX levels, change during the in-life phase” value is “↓ ***”. Besides, in assay [3] (setting [5]), the “Serum OC levels, change during the in-life phase” value is reported as “↓ ***”; the “Serum PINP levels, change during the in-life phase” value is “↓ **”; the “Serum TRACP 5b activity, change during the in-life phase” value is given as “NS”. For the same molecule, in assay [3] (setting [6]), the “OVX-induced gain in body weight” value is listed as “prevented”, the “OVX-induced increase in serum CTX levels” value was “prevented”, the “OVX-induced increase in serum OC levels” value is “prevented” and the “OVX-induced increase in serum PINP levels” value is on record as “prevented”. Further, in assay [3] (setting [6]), the “OVX-induced reduction in relative uterine weight” value was “prevented” and the “OVX-induced reduction in serum TRACP 5b activity” value was “did not affect”.

B1: OPG: Osteoprotegerin, reference inhibitor of osteoclast differentiation (protein, UniProt O00300 22-401, looked up)
Tumor necrosis factor …: ETFPPKYLHYDEETSHQLLCDKCPPGTYLKQHCTAKWKTVCAPCPDHYYTDSWHTSDECLYCSPVCKELQYVKQECNRTHNRVCECKEGRYLEIEFCLKHRSCPPGFGVVQAGTPERNTVCKRCPDGFFSNETSSKAPCRKHTNCSVFGLLLTQKGNATHDNICSGNSESTQKCGIDVTLCEEAFFRFAVPTKFTPNWLSVLVDNLPGTKVNAESVERIKRQHSSQEQTFQLLKLWKHQNKDQDIVKKIIQDIDLCENSVQRHIGHANLTFEQLRSLMESLPGKKVGAEDIEKTIKACKPSDQILKLLSLWRIKNGDQDTLKGLMHALKHSKTYHFPKTVTQSLKKTIRFLHSFTMYKLYQKLFLEMIGNQVQSVKISCL
B1: the “effect on osteoclast differentiation” value in assay [4] is reported as “inhibited significantly”.
